# Measured values from US11548918B2, “Sodium channel protein Nav1.4-targeting polypeptide and use thereof” (priority 2021, dated 2023).
# Where no end group is shown, it is not given here.
# System: skin wrinkles
# Assay: Clinical trial of wrinkle reduction, wrinkle volume measured with PRIMOS CR
# Assay type: in vivo, human
# Conditions: lotion with 0.0003 wt % NaV-B, 0.1 g at corners of eyes, female volunteers
# Experimental: The capacity of NaV-B in reducing skin wrinkles was evaluated by clinical trials, wherein a total of 30 female volunteers ranging from 35 to 55 years old were participating in the trials. In the trials, 0.1 g of lotion was evenly applied to the corners of the volunteers' eyes. The wrinkle volume of each volunteer was measured with a wrinkle analyzer PRIMOS CR at various moments: before application, 15 minutes after application, 1 hour after application, 2 hours after application, and 4 hours after application.
# The lotion was prepared by adding NaV-B, glycerin, 1,3-butanediol, sodium hyaluronate, and methylparaben into deionized water according to the following proportions, and stirring until all the ingredients were dissolved.
# Results: The reduced wrinkle volumes of each volunteer were obtained by subtracting the volume measured before application from the volumes measured 15 minutes after application, 1 hour after application, 2 hours after application, and 4 hours after application. The percentages of reduced wrinkle volume of each volunteer were obtained through dividing the reduced wrinkle volumes by the volume measured before application.
substance,measurement,setting,value
"Synthetic Nav1.4-targeting polypeptide, amino acid sequence GHCCGDEYRKWCGKRVCRNKARCC (disulfide (positions not given here); not fully specified (bridges)) [NaV-B]",percentage of reduced wrinkle volume (average of all volunteers),15 minutes after application,more than 9%
same,percentage of reduced wrinkle volume (average of all volunteers),4 hours after application,more than 15%
